# Biological target: p38 (Homo sapiens, UniProt Q16539)
# Test: Protein Kinase Assay (33P incorporation from γ-[33P]ATP into GST-ATF-2)
# Format: biochemical
# Details: 2 nM p38, preincubated 20 min at 30° C.; 10 uM cold ATP, 2 uM GST-ATF2, 70 min; read-out: ACT. (Activity), IC50 category in Protein Kinase Assay
# Method: Protein Kinase Assay. The protein kinase activity of p38 was determined by measuring the incorporation of ^33P from γ-[^33P]ATP into the GST-ATF-2 substrate, amino acids 19-96 (Upstate, N.Y. USA). The reactions were carried out in a final volume of 50 μL of 24 mM Tris-HCl buffer, pH 7.5, containing 13 mM MgCl2, 12% Glycerol, 2% DMSO, 2 mM DTT, […] of γ-[^33P]ATP (1000 Ci/mmol; 1 Ci=37 GBq) (GE Healthcare, Piscataway, N.J.), 10 uM cold ATP (GE Healthcare, Piscataway, N.J.), and 2 uM GST-ATF2. Compounds were preincubated with 2 nM p38 for 20 min at 30° C.; the reactions were initiated by the addition of GST-ATF2 and ATP and incubated for 70 min at 30° C. before being stopped by the addition of 10 μL of 600 mM phosphoric acid. The phosphorylated substrate was captured on phosphocellulose 96-well plate (Millipore MAPHNOB 10), washed with 100 mM phosphoric acid, and counted in a BeckmenCoulter LS6500 liquid scintillation counter. […] (Activity).
# p38, sequence (Q16539 whole entry): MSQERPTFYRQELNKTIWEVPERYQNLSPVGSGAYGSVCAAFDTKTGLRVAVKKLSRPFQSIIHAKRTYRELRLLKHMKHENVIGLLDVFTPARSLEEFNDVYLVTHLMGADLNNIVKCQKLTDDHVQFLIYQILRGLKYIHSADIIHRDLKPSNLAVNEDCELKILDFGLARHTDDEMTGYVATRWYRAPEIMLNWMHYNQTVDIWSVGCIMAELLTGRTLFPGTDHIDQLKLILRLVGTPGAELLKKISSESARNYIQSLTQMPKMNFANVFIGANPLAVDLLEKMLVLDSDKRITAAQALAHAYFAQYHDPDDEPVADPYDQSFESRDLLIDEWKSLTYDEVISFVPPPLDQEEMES
row,SMILES,IC50
1,"CCOc1ccc(-c2cc(NC(=O)Nc3cn(C(C)(C)C)nc3C(=O)N3CCN(C)C(=O)C3(C)C)ccc2C)cn1 [1-(1-tert-butyl-3-(2,2,4-trimethyl-3-oxopiperazine-1-carbonyl)-1H-pyrazol-4-yl)-3-(3-(6-ethoxypyridin-3-yl)-4-methylphenyl)urea]",< 0.1 µM
2,"Cc1ccc(NC(=O)Nc2sc(C(C)(C)C)cc2C(=O)N2CCNC(=O)C2(C)C)cc1-c1ccc(OCCN2CCOCC2)nc1 [1-(5-tert-butyl-3-(2,2-dimethyl-3-oxopiperazine-1-carbonyl)thiophen-2-yl)-3-(4-methyl-3-(6-(2-morpholinoethoxy)pyridin-3-yl)phenyl)urea]",< 0.1 µM
3,"Cc1ccc(NC(=O)Nc2cc(C(C)(C)C)sc2C(=O)N2CCN(C)C(=O)C2(C)C)cc1-c1ccc(CN2CCOCC2)nc1 [1-(5-tert-butyl-2-(2,2,4-trimethyl-3-oxopiperazine-1-carbonyl)thiophen-3-yl)-3-(4-methyl-3-(6-(morpholinomethyl)pyridin-3-yl)phenyl)urea]",< 0.1 µM
4,"COCCOCC#Cc1cc(NC(=O)Nc2sc(C(C)(C)C)cc2C(=O)N2CCNC(=O)C2(C)C)ccc1C [1-(5-tert-butyl-3-(2,2-dimethyl-3-oxopiperazine-1-carbonyl)thiophen-2-yl)-3-(3-(3-(2-methoxyethoxy)prop-1-ynyl)-4-methylphenyl)urea]",< 0.1 µM
5,"COCCNC(=O)c1ccc(-c2cc(NC(=O)Nc3sc(C(C)(C)C)cc3C(=O)N3CCN(C)C(=O)C3(C)C)ccc2C)cn1 [5-(5-(3-(5-tert-butyl-3-(2,2,4-trimethyl-3-oxopiperazine-1-carbonyl)thiophen-2-yl)ureido)-2-methylphenyl)-N-(2-methoxyethyl)pyridine-2-carboxamide]",< 0.1 µM
6,"Cc1ccc(NC(=O)Nc2sc(C(C)(C)C)cc2C(=O)N2CCNC(=O)C2(C)C)cc1-c1ccccn1 [1-(5-tert-butyl-3-(2,2-dimethyl-3-oxopiperazine-1-carbonyl)thiophen-2-yl)-3-(4-methyl-3-(pyridin-2-yl)phenyl)urea]",< 0.1 µM
7,"CCc1ccc(-c2cc(NC(=O)Nc3sc(C(C)(C)C)cc3C(=O)N3CCN(C)C(=O)C3(C)C)ccc2C)nc1 [1-(5-tert-butyl-3-(2,2,4-trimethyl-3-oxopiperazine-1-carbonyl)thiophen-2-yl)-3-(3-(5-ethylpyridin-2-yl)-4-methylphenyl)urea]",< 0.1 µM
8,"COc1ccc(-c2cc(C)cc(NC(=O)Nc3sc(C(C)(C)C)cc3C(=O)N3CCNC(=O)C3(C)C)c2)cn1 [1-(5-tert-butyl-3-(2,2-dimethyl-3-oxopiperazine-1-carbonyl)thiophen-2-yl)-3-(3-(6-methoxypyridin-3-yl)-5-methylphenyl)urea]",< 0.1 µM
9,"Cc1ccc(NC(=O)Nc2sc(C(C)(C)C)cc2C(=O)N2CCNC(=O)C2(C)C)cc1-c1ccc(OCCN2CCNCC2)nc1 [1-(5-tert-butyl-3-(2,2-dimethyl-3-oxopiperazine-1-carbonyl)thiophen-2-yl)-3-(4-methyl-3-(6-(2-(piperazin-1-yl)ethoxy)pyridin-3-yl)phenyl)urea]",< 0.1 µM
10,"Cc1ccc(NC(=O)Nc2cc(C(C)(C)C)oc2C(=O)N2CCNC(=O)C2(C)C)cc1-c1ccc(OCCN(C)C)nc1 [1-(5-tert-butyl-2-(2,2-dimethyl-3-oxopiperazine-1-carbonyl)furan-3-yl)-3-(3-(6-(2-(dimethylamino)ethoxy)pyridin-3-yl)-4-methylphenyl)urea]",< 0.1 µM
11,"Cc1ccc(-c2ccc(N3CCOCC3)cn2)cc1NC(=O)Nc1cc(C(C)(C)C)sc1C(=O)N1CCNC(=O)C1(C)C [1-(5-tert-butyl-2-(2,2-dimethyl-3-oxopiperazine-1-carbonyl)thiophen-3-yl)-3-(2-methyl-5-(5-morpholinopyridin-2-yl)phenyl)urea]",< 0.1 µM
12,"COc1ccc(-c2cc(NC(=O)Nc3cc(C(C)(C)C)sc3C(=O)N3CCN(C)C(=O)C3(C)C)ccc2C)cn1 [1-(5-tert-butyl-2-(2,2,4-trimethyl-3-oxopiperazine-1-carbonyl)thiophen-3-yl)-3-(3-(6-methoxypyridin-3-yl)-4-methylphenyl)urea]",< 0.1 µM
13,"Cc1ccc(NC(=O)Nc2sc(C(C)(C)C)cc2C(=O)N2CCN(C)C(=O)C2(C)C)cc1-c1ccc(C(C)(C)O)nc1 [1-(5-tert-butyl-3-(2,2,4-trimethyl-3-oxopiperazine-1-carbonyl)thiophen-2-yl)-3-(3-(6-(2-hydroxypropan-2-yl)pyridin-3-yl)-4-methylphenyl)urea]",< 0.1 µM
14,"CCN(CC)Cc1ccc(-c2cc(NC(=O)Nc3sc(C(C)(C)C)cc3C(=O)N3CCN(C)C(=O)C3(C)C)ccc2C)cn1 [1-(5-tert-butyl-3-(2,2,4-trimethyl-3-oxopiperazine-1-carbonyl)thiophen-2-yl)-3-(3-(6-((diethylamino)methyl)pyridin-3-yl)-4-methylphenyl)urea]",< 0.1 µM
15,"CCc1ccc(-c2cc(NC(=O)Nc3sc(C(C)(C)C)cc3C(=O)N3CCNC(=O)C3(C)C)cc(F)c2C)cn1 [1-(5-tert-butyl-3-(2,2-dimethyl-3-oxopiperazine-1-carbonyl)thiophen-2-yl)-3-(3-(6-ethylpyridin-3-yl)-5-fluoro-4-methylphenyl)urea]",< 0.1 µM
16,"CON(C)C(=O)c1ccc(-c2cc(NC(=O)Nc3sc(C(C)(C)C)cc3C(=O)N3CCN(C)C(=O)C3(C)C)ccc2C)cn1 [5-(5-(3-(5-tert-butyl-3-(2,2,4-trimethyl-3-oxopiperazine-1-carbonyl)thiophen-2-yl)ureido)-2-methylphenyl)-N-methoxy-N-methylpyridine-2-carboxamide]",< 0.1 µM
17,"Cc1ccc(NC(=O)Nc2sc(C(C)(C)C)cc2C(=O)N2CCNC(=O)C2(C)C)cc1C#CCN1CCOCC1 [1-(5-tert-butyl-3-(2,2-dimethyl-3-oxopiperazine-1-carbonyl)thiophen-2-yl)-3-(4-methyl-3-(3-morpholinoprop-1-ynyl)phenyl)urea]",< 0.1 µM
18,"Cc1ccc(NC(=O)Nc2sc(C(C)(C)C)cc2C(=O)N2CCNC(=O)C2(C)C)cc1-c1ccc(N2CCOCC2)nc1 [1-(5-tert-butyl-3-(2,2-dimethyl-3-oxopiperazine-1-carbonyl)thiophen-2-yl)-3-(4-methyl-3-(6-morpholinopyridin-3-yl)phenyl)urea]",< 0.1 µM
19,"Cc1ccc(NC(=O)Nc2sc(C(C)(C)C)cc2C(=O)N2CCC(=O)N(C)CC2)cc1-c1ccc(N2CCOCC2)cn1 [1-(5-tert-butyl-3-(4-methyl-5-oxo-1,4-diazepane-1-carbonyl)thiophen-2-yl)-3-(4-methyl-3-(5-morpholinopyridin-2-yl)phenyl)urea]",< 0.1 µM
20,"COc1ccc(-c2cc(NC(=O)Nc3sc(C(C)(C)C)cc3C(=O)N3CCN(CCO)C(=O)C3(C)C)ccc2C)cn1 [1-(5-tert-butyl-3-(4-(2-hydroxyethyl)-2,2-dimethyl-3-oxopiperazine-1-carbonyl)thiophen-2-yl)-3-(3-(6-methoxypyridin-3-yl)-4-methylphenyl)urea]",< 0.1 µM
21,"CCNC(=O)c1ccc(-c2cc(NC(=O)Nc3sc(C(C)(C)C)nc3C(=O)N3CCN(C)C(=O)C3(C)C)ccc2C)cn1 [5-(5-(3-(2-tert-butyl-4-(2,2,4-trimethyl-3-oxopiperazine-1-carbonyl)thiazol-5-yl)ureido)-2-methylphenyl)-N-ethylpyridine-2-carboxamide]",< 0.1 µM
22,"Cc1ccc(NC(=O)Nc2sc(C(C)(C)C)cc2C(=O)N2CCN(C)C(=O)C2(C)C)cc1-c1ccc(CN2CCCC2)nc1 [1-(5-tert-butyl-3-(2,2,4-trimethyl-3-oxopiperazine-1-carbonyl)thiophen-2-yl)-3-(4-methyl-3-(6-(pyrrolidin-1-ylmethyl)pyridin-3-yl)phenyl)urea]",< 0.1 µM
23,"Cc1ccc(NC(=O)Nc2cn(C(C)(C)C)nc2C(=O)N2CCN(C)C(=O)C2(C)C)cc1-c1ccc(C(C)C)nc1 [1-(1-tert-butyl-3-(2,2,4-trimethyl-3-oxopiperazine-1-carbonyl)-1H-pyrazol-4-yl)-3-(3-(6-isopropylpyridin-3-yl)-4-methylphenyl)urea]",< 0.1 µM
24,"COc1ccc(-c2cc(NC(=O)Nc3sc(C(C)(C)C)cc3C(=O)N3CCN(C)C(=O)C3(C)C)cc(F)c2C)cn1 [1-(5-tert-butyl-3-(2,2,4-trimethyl-3-oxopiperazine-1-carbonyl)thiophen-2-yl)-3-(3-fluoro-5-(6-methoxypyridin-3-yl)-4-methylphenyl)urea]",< 0.1 µM
25,"Cc1ccc(NC(=O)Nc2cc(C(C)(C)C)sc2C(=O)N2CCN(C)C(=O)C2(C)C)cc1-c1ccc(N2CCOCC2)nc1 [1-(5-tert-butyl-2-(2,2,4-trimethyl-3-oxopiperazine-1-carbonyl)thiophen-3-yl)-3-(4-methyl-3-(6-morpholinopyridin-3-yl)phenyl)urea]",< 0.1 µM
26,"CC(C)(C)c1cc(C(=O)N2CCNC(=O)C2(C)C)c(NC(=O)Nc2cccc(-c3ccnc(F)c3)c2)s1 [1-(5-tert-butyl-3-(2,2-dimethyl-3-oxopiperazine-1-carbonyl)thiophen-2-yl)-3-(3-(2-fluoropyridin-4-yl)phenyl)urea]",< 0.1 µM
27,"Cc1ccc(NC(=O)Nc2sc(C(C)(C)C)cc2C(=O)N2CCNC(=O)C2(C)C)cc1-c1ccc(N(C)C)nc1 [1-(5-tert-butyl-3-(2,2-dimethyl-3-oxopiperazine-1-carbonyl)thiophen-2-yl)-3-(3-(6-(dimethylamino)pyridin-3-yl)-4-methylphenyl)urea]",< 0.1 µM
